Series [1] concerns A549 human lung cancer xenografts. Briefly: Growth rate of A549 xenografts in nude mice (Example 3). It is filed as in vivo. As for the experimental part: A549 human lung cancer cells (American Type Culture Collection, Rockville, Md.) were cultured for injection in nude mice. The culture medium was an enriched L15:SMEM base media supplemented with other factors as described previously.
Twenty five male nude mice were allowed to acclimate for one week then were inoculated with tumor cells. The mice were housed under aseptic conditions (positive air pressure in a designated nude mouse room, cages, bedding, water and food were sterilized, cages had microisolator tops) in a temperature (24° C.) and light controlled (12 h light per day) room. All mouse handling was carried out under a laminar flow hood. Our Institutional Animal Care and Use Committee approved all animal use and handling before commencing the experiment. The animal care facilities are accredited by the American Association for the Accreditation of Laboratory Animal Care. Experimental Design-Cultured A549 cells were harvested, rinsed then suspended in serum-free L15:SMEM culture medium. Cells in suspension were counted using a hemocytometer and the cell count was adjusted to […]. The suspension was kept well mixed during the time of injection. […]
Tumor lengths and widths and body weights were measured three times weekly. […] Tumor sizes were calculated using the formula for the volume of a prolate spheroid, […]

A further series deals with duodenum crypts. The experiment in a line: Apoptotic figures in the duodenum (Example 1). It is filed as in vivo. Particulars: Swiss mice, CPT-11 60 mg/kg IV; two way ANOVA. As for the experimental part:
(§1) Mice were killed 24 hours after the last CPT-11 treatment. At necropsy, mice were weighed, anesthesized and blood was drawn via cardiac puncture. Peripheral blood was placed in an EDTA-containing tube and sent to Laboratory Animal Resources for complete blood counts. The liver, spleen, testes and kidneys were removed, weighed, then part of each organ was fixed in Omnifix® and a part was quick frozen in liquid nitrogen. The brain was removed and frozen in liquid nitrogen. The colon was resected, split open longitudinally and placed serosal side down on a card. Feces were removed from the colon, placed in a tared pan and weighed, then placed in a 100° C. vacuum oven for drying to constant weight. The colon and a section of duodenum were fixed in Omnifix®. The fixed colon and duodenum were oriented in cassettes then processed to paraffin blocks. Paraffin sections were cut 4 μm thick, histological slides of the colon and duodenum were prepared and stained with H & E or periodic acid-Schiff stain.
The number of apoptotic cells found in 10 complete, midaxially sectioned duodenum crypts was counted as an indication of intestinal damage. […] Thus, the treatment helped return the values closer to control (no CPT-11 treatment) group values.

A short description of series [2]: Liver weight as percent of body weight (Example 1). It is filed as in vivo. Particulars: Swiss mice treated with CPT-11; compared with mice not treated with CPT-11. As for the experimental part: as §1
The weight of the liver was expressed as a percent of body weight. […] Thus, the treatment returned the values to control (no CPT-11 treatment) group values.

In series [3] the test system is peripheral blood erythrocytes. The experiment in a line: Micronuclei and polychromataphilic erythrocytes in peripheral blood. It is filed as in vivo. Particulars: Swiss mice treated with CPT-11; compared with mice that did not receive CPT-11. As for the experimental part: After completion of blood counts, a thin smear of peripheral blood was made on a microscope slide, the smear was air-dried and was then stained for 5 minutes with 0.01 mg/ml acridine orange in phosphate buffered saline (pH 7.0). Micronuclei and polychomataphilic erythrocytes (PCE) were identified on the acridine orange stained smears of peripheral blood. Using fluorescent microscopy and a 100X oil objective, the mature erythrocytes, lacking either DNA or RNA are green, the RNA containing PCE are reddish and the DNA containing micronuclei are bright yellow. Fields containing a single layer of erythrocytes were identified. At least 8 standard fields (300, 400 or 500 cells) were identified on each slide and the number or micronuclei or PCEs were counted and recorded.

A further series can be described thus: Coat quality (Example 1). It is filed as in vivo. The following applies: Swiss mice treated with CPT-11; compared with normal control group. An excerpt: The group of mice that consumed the ‘normal’ diet containing 10% corn oil and 0% AAFA that were not treated with CPT-11 (normal control group) was compared to the groups of mice treated with CPT-11 that consumed each diet. […] Thus, the treatment helped return the animal grooming behavior closer to the normal untreated control group without CPT-11. This generally reflects that the animals were “feeling better”.

Series [4] can be described thus: Blood counts: WBC, RBC, hematocrit (Example 1). The following applies: Swiss mice treated with CPT-11; AAFA prior to and during CPT-11. It is filed as in vivo. The method, then: as §1
Series [5] can be described thus: Fecal water content (Example 1). It is filed as in vivo. Particulars: Swiss mice treated with CPT-11 60 mg/kg IV; compared with mice not treated with CPT-11; not significant by ANOVA. As for the experimental part:
as §1
The initial wet weight and final constant weight of the dried feces was used to calculate the % of water in the feces of each mouse as an assay of intestinal function. […] Thus, the treatment helped return the values closer to control (no CPT-11 treatment) group values.

The conditions of series [6]: cited from earlier work.
A short description of series [7]: Body weight gain during CPT-11 treatment on AAFA diets (Example 1). It is filed as in vivo. The following applies: male Swiss mice; 0-3% AAFA diets; CPT-11 60 mg/kg IV once each four days for 2 weeks. The method, then:
40 male Swiss mice, 6 weeks old, were obtained and earmarked for unique identification. Mice were housed 5/cage in Laboratory Animal Resources facilities. After 24 hours acclimation, mice were weighed and the food was changed to one of four defined diets. The AIN-76 based, 10% total fat diets contained: 0% AAFA+10% corn oil, 1% AAFA+9% corn oil, 2% AAFA+8% corn oil or 3% AAFA+7% corn oil. Two cages (10 mice) were designated to consume each diet. All mice were weighed three times weekly throughout the experiment.
Mice consumed the diet for 2 weeks then treatment with CPT-11 commenced for half of the mice (1 cage of 5 mice) on each diet. CPT-11 was administered at 60 mg/kg body weight, IV in a lateral tail vein, once each four days for 2 weeks. Control mice received an equivalent volume of the CPT-11 vehicle.

Setting [8] is: patients or other mammals treated with CPT-11.

Counter-ions that a name gives are not always drawn.

For the compound ferric citrate [iron], the “effect of supplemental iron on A549 tumor growth” value in series [1] (mice fed corn oil, supplemental iron and DOX) was “counteracted the growth inhibitory effect”.

As for `COc1cccc2c1C(=O)c1c(O)c3c(c(O)c1C2=O)C[C@@](O)(C(=O)CO)C[C@@H]3O[C@H]1C[C@H](N)[C@H](O)[C@H](C)O1` [DOX, doxorubicin], the “growth of A549 tumors” value in series [1] (mice consuming corn oil, treated with DOX) is recorded as “halted the growth”.

For `CCc1c2c(nc3ccc(OC(=O)N4CCC(N5CCCCC5)CC4)cc13)-c1cc3c(c(=O)n1C2)COC(=O)[C@]3(O)CC` [CPT-11, irinotecan hydrochloride], the “number of apoptotic cells in 10 duodenum crypts” value in the series with duodenum crypts was “significantly increased”. Also, in [2], the “liver weight as percent of body weight” value is given as “significantly larger”. Moreover, in series [3], the “micronuclei (MN) in the peripheral blood” value is “significantly higher” and the “polychromataphilic erythrocytes (PCE) in the peripheral blood” value was “significantly higher”. The coat quality entry in the series “Coat quality (Example 1)” is reported as “scruffy”. Also, in series [4], the hematocrit entry is given as “significantly decreased”, the “red blood cell count” value is “significantly decreased” and the “white blood cell count” value is “significantly decreased”. The “mean fecal water content (% of water in the feces)” value in series [5] is reported as “higher”. In series [6] (setting [8]), the patients with anemia is 67% and the patients with leukopenia is 91%. Besides, in [6] (side effect of CPT-11 treatment), the “patients reporting asthenia (tiredness or weakness)” value is roughly 90%. Further, the “weight gained during the time of CPT-11 treatment” value in series [7] was “not significantly different”.
